Here are results for 29 compounds from US20240239752A1, “BICYCLIC HETEROAROMATIC INHIBITORS OF KLK5” (BioCryst Pharmaceuticals, Inc., priority 2021, published 2024).

In this assay the target is T1, recombinant human KLK5 (Homo sapiens, UniProt Q9Y337).
T1 construct: purchased Novoprotein or R&D Systems C415 or 1108-SE
T1 sequence (Q9Y337 23-293): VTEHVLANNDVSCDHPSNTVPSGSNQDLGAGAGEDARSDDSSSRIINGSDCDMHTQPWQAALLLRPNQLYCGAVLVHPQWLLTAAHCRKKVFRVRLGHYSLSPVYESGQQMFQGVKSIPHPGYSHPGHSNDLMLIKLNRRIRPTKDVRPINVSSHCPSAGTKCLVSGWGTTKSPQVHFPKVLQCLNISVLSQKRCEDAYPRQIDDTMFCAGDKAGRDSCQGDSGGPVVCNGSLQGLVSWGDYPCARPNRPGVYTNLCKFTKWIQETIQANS
The assay can be described thus: Kallikrein (KLK) 5 enzymatic assay (Boc-VPR-AMC fluorogenic substrate). Type of assay: biochemical. The conditions noted are these: recombinant human KLK5 0.1 μg/well, Boc-VPR-AMC 100 μM, pH 7.5, room temperature, 1% DMSO; tested a minimum of three times. The method in brief:
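Recombinant human KLK5 (0.1 μg/well) was preincubated with compound at room temperature in 0.1 M NaH2PO4, pH 7.5, 1% DMSO, then started with 100 μM Boc-VPR-AMC. The rate was followed at 380/460 nm, and IC50 came from percent inhibition relative to enzyme alone, with at least three runs.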

`Nc1nccc2ccc(-c3ccc4c(c3)c(COc3cccc(OC(F)(F)F)c3CC(=O)O)nn4C3CCOC3)cc12` (centres unmarked) [Compound 288d, 2-(2-((5-(1-aminoisoquinolin-7-yl)-1-(tetrahydrofuran-3-yl)-1H-indazol-3-yl)methoxy)-6-(trifluoromethoxy)phenyl)acetic acid]: the IC50 is less than 1000 nM. For the compound `Nc1nccc2c(-c3ccc4c(c3)c(COc3cccc(OC(F)(F)F)c3CC(=O)O)nn4C3CCOC3)cccc12` (centres unmarked) [Compound 289b, 2-(2-((5-(1-aminoisoquinolin-5-yl)-1-(tetrahydrofuran-3-yl)-1H-indazol-3-yl)methoxy)-6-(trifluoromethoxy)phenyl)acetic acid], the IC50 is less than 1000 nM. To `Nc1nccc2ccc(-c3ccc4c(c3)c(COc3cccc(C5CC5)c3CC(=O)O)nn4C3CCOC3)cc12` (centres unmarked) [Compound 290d, 2-(2-((5-(1-aminoisoquinolin-7-yl)-1-(tetrahydrofuran-3-yl)-1H-indazol-3-yl)methoxy)-6-cyclopropylphenyl)acetic acid] belongs less than 1000 nM; to `Nc1nccc2c(-c3ccc4c(c3)c(COc3cccc(C5CC5)c3CC(=O)O)nn4C3CCOC3)cccc12` (centres unmarked) [Compound 291b, 2-(2-((5-(1-aminoisoquinolin-5-yl)-1-(tetrahydrofuran-3-yl)-1H-indazol-3-yl)methoxy)-6-cyclopropylphenyl)acetic acid], less than 1000 nM; to `N#Cc1cccc(OCc2nn(C3CCOC3)c3ccc(-c4ccc5ccnc(N)c5c4)cc23)c1CC(=O)O` (centres unmarked) [Compound 292d, 2-(2-((5-(1-aminoisoquinolin-7-yl)-1-(tetrahydrofuran-3-yl)-1H-indazol-3-yl)methoxy)-6-cyanophenyl)acetic acid], 1000 to 10000 nM.

For the compound `N#Cc1cccc(OCc2nn(C3CCOC3)c3ccc(-c4cccc5c(N)nccc45)cc23)c1CC(=O)O` (centres unmarked) [Compound 293b, 2-(2-((5-(1-aminoisoquinolin-5-yl)-1-(tetrahydrofuran-3-yl)-1H-indazol-3-yl)methoxy)-6-cyanophenyl)acetic acid], the half-inhibitory concentration (IC50) is less than 1000 nM.

On to `Cc1cccc(OCc2cn(C3CCOC3)c3ncc(-c4cccc5c(N)nccc45)cc23)c1CC(=O)O` (centres unmarked) [Compound 294c, 2-(2-((5-(1-aminoisoquinolin-5-yl)-1-(tetrahydrofuran-3-yl)-1H-pyrrolo[2,3-b]pyridin-3-yl)methoxy)-6-methylphenyl)acetic acid], for which the IC50 is less than 1000 nM. To `Nc1nccc2ccc(-c3ccc4c(c3)c(COc3ccccc3CC(=O)O)nn4CC3CNC3)cc12` [Compound 295c, 2-(2-((5-(1-aminoisoquinolin-7-yl)-1-(azetidin-3-ylmethyl)-1H-indazol-3-yl)methoxy)phenyl)acetic acid] belongs less than 1000 nM. To `Nc1nccc2c(-c3ccc4c(c3)c(COc3ccccc3CC(=O)O)nn4CC3CNC3)cccc12` [Compound 296b, 2-(2-((5-(1-aminoisoquinolin-5-yl)-1-(azetidin-3-ylmethyl)-1H-indazol-3-yl)methoxy)phenyl)acetic acid] belongs less than 1000 nM; to `Nc1nccc2ccc(-c3ccc4c(c3)c(COc3ccccc3CC(=O)O)nn4C3CCN(CC(=O)O)C3)cc12` (centres unmarked) [Compound 297d, 2-(2-((5-(1-aminoisoquinolin-7-yl)-1-(1-(carboxymethyl)pyrrolidin-3-yl)-1H-indazol-3-yl)methoxy)phenyl)acetic acid], less than 1000 nM. Regarding `Nc1nccc2c(-c3ccc4c(c3)c(COc3ccccc3CC(=O)O)nn4C3CCN(CCO)C3)cccc12` (centres unmarked) [Compound 298c, 2-(2-((5-(1-aminoisoquinolin-5-yl)-1-(1-(2-hydroxyethyl)pyrrolidin-3-yl)-1H-indazol-3-yl)methoxy)phenyl)acetic acid], the half-inhibitory concentration (IC50) is less than 1000 nM. Turning to `Nc1nccc2ccc(-c3ccc4c(c3)c(COc3ccccc3CC(=O)O)nn4C3CCN(CCO)C3)cc12` (centres unmarked) [Compound 299b, 2-(2-((5-(1-aminoisoquinolin-7-yl)-1-(1-(2-hydroxyethyl)pyrrolidin-3-yl)-1H-indazol-3-yl)methoxy)phenyl)acetic acid], the IC50 was less than 1000 nM. For `COc1c(CN)cccc1-c1cc2c(COc3ccccc3CC(=O)O)cccc2o1` [Compound 300d, 2-(2-((2-(3-(aminomethyl)-2-methoxyphenyl)benzofuran-4-yl)methoxy)phenyl)acetic acid], the IC50 was more than 10000 nM. To `Nc1nccc2c(-c3ccc4c(c3)c(C#Cc3ccccc3CC(=O)O)cn4C3CCOC3)cccc12` (centres unmarked) [Compound 301f, 2-(2-((5-(1-aminoisoquinolin-5-yl)-1-(tetrahydrofuran-3-yl)-1H-indol-3-yl)ethynyl)phenyl)acetic acid] belongs less than 1000 nM; to `Nc1nccc2c(-c3ccc4c(c3)c(CCc3ccccc3CC(=O)O)cn4C3CCOC3)cccc12` (centres unmarked) [Compound 302b, 2-(2-(2-(5-(1-aminoisoquinolin-5-yl)-1-(tetrahydrofuran-3-yl)-1H-indol-3-yl)ethyl)phenyl)acetic acid], less than 1000 nM; to `COCCN1CCC(n2nc(COc3ccccc3CC(=O)O)c3cc(-c4cccc5c(N)nccc45)ccc32)C1` (centres unmarked) [Compound 303c, 2-(2-((5-(1-aminoisoquinolin-5-yl)-1-(1-(2-methoxyethyl)pyrrolidin-3-yl)-1H-indazol-3-yl)methoxy)phenyl)acetic acid], less than 1000 nM. Consider `COCCN1CCC(n2nc(COc3ccccc3CC(=O)O)c3cc(-c4ccc5ccnc(N)c5c4)ccc32)C1` (centres unmarked) [Compound 304b, 2-(2-((5-(1-aminoisoquinolin-7-yl)-1-(1-(2-methoxyethyl)pyrrolidin-3-yl)-1H-indazol-3-yl)methoxy)phenyl)acetic acid], for which the IC50 is less than 1000 nM. To `Nc1nccc2c(-c3ccc4c(c3)c(COc3ccccc3CC(=O)O)nn4C3CCN(CC(=O)O)C3)cccc12` (centres unmarked) [Compound 305b, 2-(2-((5-(1-aminoisoquinolin-5-yl)-1-(1-(carboxymethyl)pyrrolidin-3-yl)-1H-indazol-3-yl)methoxy)phenyl)acetic acid] belongs less than 1000 nM; to `COCCN1CC(Cn2nc(COc3ccccc3CC(=O)O)c3cc(-c4ccc5ccnc(N)c5c4)ccc32)C1` [Compound 306c, 2-(2-((5-(1-aminoisoquinolin-7-yl)-1-((1-(2-methoxyethyl)azetidin-3-yl)methyl)-1H-indazol-3-yl)methoxy)phenyl)acetic acid], less than 1000 nM; to `CC(C)CCN1CC(Cn2nc(COc3ccccc3CC(=O)O)c3cc(-c4ccc5ccnc(N)c5c4)ccc32)C1` [Compound 307c, 2-(2-((5-(1-aminoisoquinolin-7-yl)-1-((1-isopentylazetidin-3-yl)methyl)-1H-indazol-3-yl)methoxy)phenyl)acetic acid], less than 1000 nM. Consider `CC(C)CCN1CC(Cn2nc(COc3ccccc3CC(=O)O)c3cc(-c4cccc5c(N)nccc45)ccc32)C1` [Compound 308b, 2-(2-((5-(1-aminoisoquinolin-5-yl)-1-((1-isopentylazetidin-3-yl)methyl)-1H-indazol-3-yl)methoxy)phenyl)acetic acid], for which the IC50 was less than 1000 nM. The result for `CC(C)CCN1CCC(n2nc(COc3ccccc3CC(=O)O)c3cc(-c4ccc5ccnc(N)c5c4)ccc32)C1` (centres unmarked) [Compound 309c, 2-(2-((5-(1-aminoisoquinolin-7-yl)-1-(1-isopentylpyrrolidin-3-yl)-1H-indazol-3-yl)methoxy)phenyl)acetic acid] reads less than 1000 nM; that for `CCOC(=O)N1CCC(n2nc(COc3ccccc3CC(=O)O)c3cc(-c4ccc5ccnc(N)c5c4)ccc32)C1` (centres unmarked) [Compound 310c, 2-(2-((5-(1-aminoisoquinolin-7-yl)-1-(1-(ethoxycarbonyl)pyrrolidin-3-yl)-1H-indazol-3-yl)methoxy)phenyl)acetic acid], less than 1000 nM; that for `CCOC(=O)N1CCC(n2nc(COc3ccccc3CC(=O)O)c3cc(-c4cccc5c(N)nccc45)ccc32)C1` (centres unmarked) [Compound 311b, 2-(2-((5-(1-aminoisoquinolin-5-yl)-1-(1-(ethoxycarbonyl)pyrrolidin-3-yl)-1H-indazol-3-yl)methoxy)phenyl)acetic acid], less than 1000 nM. To `CCS(=O)(=O)N1CCC(n2nc(COc3ccccc3CC(=O)O)c3cc(-c4ccc5ccnc(N)c5c4)ccc32)C1` (centres unmarked) [Compound 312c, 2-(2-((5-(1-aminoisoquinolin-7-yl)-1-(1-(ethylsulfonyl)pyrrolidin-3-yl)-1H-indazol-3-yl)methoxy)phenyl)acetic acid] belongs less than 1000 nM. The result for `CCS(=O)(=O)N1CCC(n2nc(COc3ccccc3CC(=O)O)c3cc(-c4cccc5c(N)nccc45)ccc32)C1` (centres unmarked) [Compound 313b, 2-(2-((5-(1-aminoisoquinolin-5-yl)-1-(1-(ethylsulfonyl)pyrrolidin-3-yl)-1H-indazol-3-yl)methoxy)phenyl)acetic acid] reads less than 1000 nM; that for `COc1c(CN)cccc1-c1cc(OC)c2occ(COc3ccccc3CC(=O)O)c2c1` [Compound 324d, 2-(2-((5-(3-(aminomethyl)-2-methoxyphenyl)-7-methoxybenzofuran-3-yl)methoxy)phenyl)acetic acid], more than 10000 nM; that for `COc1c(CN)cccc1-c1ccc2c(c1)c(COc1ccccc1CC(=O)O)nn2C(C)C` [Compound 325b, 2-(2-((5-(3-(aminomethyl)-2-methoxyphenyl)-1-isopropyl-1H-indazol-3-yl)methoxy)phenyl)acetic acid], less than 1000 nM. For the compound `COc1c(-c2ccc3c(c2)c(COc2ccccc2CC(=O)O)nn3C(C)C)ccnc1CN` [Compound 326d, 2-(2-((5-(2-(aminomethyl)-3-methoxypyridin-4-yl)-1-isopropyl-1H-indazol-3-yl)methoxy)phenyl)acetic acid], the IC50 was less than 1000 nM.

A word on the IC50: it is the concentration at which inhibition is half-maximal.
